Literature values in patent US5317003A, “Herbicidal compositions comprising glyphosate salts and alkoxylated quaternary amine surfactants” (Monsanto Company, priority 1992, dated 1994).

SMILES: O=C(O)CNCP(=O)(O)O [N-phosphonomethylglycine]
- solubility in water: relatively insoluble
